Key:
Assay in all cases: relative viability (nuclei count vs DMSO), 5 days (fraction); higher = more cells survive
XMD13-2 + Navitoclax = compound: C1CC1C(=O)NC2=NNC3=C2C=CC(=C3)C4=CC(=CC=C4)C(=O)NC5CC5 [XMD13-2] + CC1(C)CCC(c2ccc(Cl)cc2)=C(CN2CCN(c3ccc(C(=O)NS(=O)(=O)c4ccc(N[C@H](CCN5CCOCC5)CSc5ccccc5)c(S(=O)(=O)C(F)(F)F)c4)cc3)CC2)C1 [Navitoclax] (partner 0.5 µM)
Method in brief: (§1)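 The day after seeding in 1536-well plates, lung cancer cell lines were treated by pin tool with a single drug, or with a fixed anchor-drug dose together with five library-drug doses (not always all listed) in √10 steps. After 5 days, a combined fix-and-stain solution (final 0.05% Triton X-100, 1% formaldehyde, 1 ug/ml Hoechst) was added. Nuclei counted on 4× images gave relative viability as treated counts over vehicle counts, reported as the median of duplicate plates.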

XMD13-2 + Alpelisib = compound: C1CC1C(=O)NC2=NNC3=C2C=CC(=C3)C4=CC(=CC=C4)C(=O)NC5CC5 [XMD13-2] + Cc1nc(NC(=O)N2CCC[C@H]2C(N)=O)sc1-c1ccnc(C(C)(C)C(F)(F)F)c1 [Alpelisib] (partner 2 µM)
Method in brief: as §1

ALW-II-49-7 + Vorinostat = compound: Cc1ccc(C(=O)Nc2cccc(C(F)(F)F)c2)cc1Nc1cncc(C(N)=O)c1 [ALW-II-49-7] + O=C(CCCCCCC(=O)Nc1ccccc1)NO [Vorinostat] (partner 1 µM)
Method in brief: as §1

ALW-II-49-7 + AZD7762 = compound: Cc1ccc(C(=O)Nc2cccc(C(F)(F)F)c2)cc1Nc1cncc(C(N)=O)c1 [ALW-II-49-7] + NC(=O)Nc1cc(-c2cccc(F)c2)sc1C(=O)N[C@H]1CCCNC1 [AZD7762] (partner 0.2 µM)
Method in brief: as §1

| Cell Line | relative viability (XMD13-2 + Navitoclax; first compound 0.05 µM) | relative viability (XMD13-2 + Navitoclax; first compound 0.1581 µM) | relative viability (XMD13-2 + Navitoclax; first compound 0.5 µM) | relative viability (XMD13-2 + Navitoclax; first compound 1.581 µM) | relative viability (XMD13-2 + Navitoclax; first compound 5 µM) | relative viability (XMD13-2 + Alpelisib; first compound 0.05 µM) | relative viability (XMD13-2 + Alpelisib; first compound 0.1581 µM) | relative viability (XMD13-2 + Alpelisib; first compound 0.5 µM) | relative viability (XMD13-2 + Alpelisib; first compound 1.581 µM) | relative viability (XMD13-2 + Alpelisib; first compound 5 µM) | relative viability (ALW-II-49-7 + Vorinostat; first compound 0.08 µM) | relative viability (ALW-II-49-7 + Vorinostat; first compound 0.253 µM) | relative viability (ALW-II-49-7 + Vorinostat; first compound 0.8 µM) | relative viability (ALW-II-49-7 + Vorinostat; first compound 8 µM) | relative viability (ALW-II-49-7 + AZD7762; first compound 0.08 µM) | relative viability (ALW-II-49-7 + AZD7762; first compound 0.253 µM) | relative viability (ALW-II-49-7 + AZD7762; first compound 0.8 µM) | relative viability (ALW-II-49-7 + AZD7762; first compound 8 µM) | relative viability (ALW-II-49-7 + Vorinostat; first compound 2.53 µM) | relative viability (ALW-II-49-7 + AZD7762; first compound 2.53 µM) |
| --- | --- | --- | --- | --- | --- | --- | --- | --- | --- | --- | --- | --- | --- | --- | --- | --- | --- | --- | --- | --- |
| NCI-H1395 | 1.25 | 1.16 | 1.23 | 1.11 | 1.1 | 1.3 | 1.07 | 0.976 | 0.984 | 1.1 | 0.649 | 0.699 | 0.733 | 0.569 | 0.381 | 0.43 | 0.364 | 0.362 |  |  |
| PC-14 | 0.972 | 1.1 | 0.999 | 0.973 | 1 | 1.01 | 0.936 | 1.01 | 0.931 | 1.11 | 0.474 | 0.544 | 0.668 | 0.588 | 0.445 | 0.318 | 0.447 | 0.236 | 0.562 |  |
| BEN | 0.186 | 0.0776 | 0.0786 | 0.0451 | 0.0694 | 1.29 | 1.03 | 1 | 1.03 | 1.11 | 0.557 | 0.723 | 0.592 | 0.558 | 0.723 | 0.769 | 0.666 | 0.765 | 0.441 | 0.799 |
| EPLC-272H | 1.23 | 1.13 | 1.26 | 0.814 | 0.649 | 1.03 | 0.856 | 1.07 | 0.759 | 0.463 | 0.37 | 0.436 | 0.352 | 0.301 | 0.169 | 0.251 | 0.278 | 0.198 | 0.32 | 0.248 |

Reference: the supplement of paper PMC10307832
